Marks after values point to notes of the source that are not given here.
Legend:
[1] = test system: TPA induced chronic skin inflammation; assay: Example E: TPA induced chronic skin inflammation mouse model, ear thickness; type: in vivo; settings: day 22, 0.05 mg/ear daily topical from day 7, TPA-treated mice
Source text: Objective: To evaluate the anti-inflammatory properties of compounds of the invention in a 12-O-tetradecanoylphorbol-13-acetate (TPA) induced chronic skin inflammation mouse model.
Topically applied phorbol esters such as TPA induce skin inflammation involving edema, macrophage and T cell infiltration and epidermal hyperplasia (Alford et al., 1992), and this system has been used as an animal model for dermatitis, mimicking aspects of human inflammatory skin disorders. TPA is also known as a tumor promoter, so that agents which inhibit hyperproliferative or angiogenic actions of TPA may inhibit tumor promotion.
Drug formulations: Compound AC was dissolved in isopropyl myristate:propylene glycol (1:1)+0.9% DMSO at the indicated concentrations. TPA was dissolved in acetone:water (99:1). Dexamethasone (0.06%) was dissolved in normal saline.
Mice: HSD-ICR(CD-1R) female mice at 8-10 weeks of age were used in this experiment.
Experimental Design: Mice were placed into six groups of 10 mice each. 20 μL of 0.01% TPA was administered to each ear on days 0, 2, 4, 7, 9, 11, 13, 15, 18, 20, and 22. 20 μL of AC at various concentrations or 20 μL of dexamethasone solution was applied to the ears daily beginning on day 7, after inflammatory changes in ear thickness were established. Ear thickness was measured with calipers every three days.

[2] = test system: imiquimod-induced dermatitis
Experimental: Topical imiquimod (IMQ), a toll-like receptor agonist, has been established as a model of Inflammatory skin diseases including psoriasis and atopic dermatitis. Dermal inflammatory changes and gene expression in mice treated with topical imiquimod mimic human psoriasis and dermatitis (van der Fits et al., 2009; Swindell et al., 2011). The effect of a set of compounds of the invention were tested in a mouse model of imiquimod-induced dermatitis, with topical tacrolimus and dexamethasone as comparators for assessing safety and efficacy relative to standard agents used to treat dermatitis in humans.
Commercial 0.1% tacrolimus ointment (ProTopic™[…]) was also used as an active comparator. Petrolatum containing 10% ethanol was used as a control treatment.
Female Balb/C mice (8 weeks old) were randomized and divided into groups of 5 animals each. Polyethylene collars were affixed to the mice to prevent them from easily scratching their ears. 5% imiquimod was applied to both ears of each mouse (20 microliters per ear) daily for 5 days, and then every other day for the full duration of the study. […] On day 7 after initiation of imiquimod, treatment with topical agents was started. Both ears of each mouse were treated with test ointments, with one compound per mouse.
Ear thickness and PASI assessments (Psoriasis Area and Severity Index, a standard psoriasis scoring system) were recorded twice per week throughout the study. The PASI score comprises the sum of evaluations of swelling, erythema and scaling on scales from 0 to 4; the maximum PASI score is 12, and the minimum, in unaffected skin, is 0).

In the case of `C[C@@H]1C[C@H]2[C@@H]3CCC4=CC(=O)C=C[C@]4(C)[C@@]3(F)[C@@H](O)C[C@]2(C)[C@@]1(O)C(=O)CO` [Dexamethasone, reference compound], the “Ear thickness (mm)” value [1] is reported as 0.301 ± 0.0722 mm, the “Ear thickness, Mean ± SEM” value ([2]; imiquimod-treated mice, topical ointment 0.06% active drug (dexamethasone 0.03%, tacrolimus 0.1%)) is reported as 0.305 ± 0.111 and the “Body Weight (mean ± SEM), Final” value ([2]; mouse, in vivo) is reported as 18.1 ± 0.5 g. The “Body Weight (mean ± SEM), Initial” value ([2]; mouse, in vivo) was 20.5 ± 0.6 g, the “D BW (g)” value ([2]; mouse, in vivo) was −2.4 * g and the “Hair growth on the imiquimod-affected head area, in words” value ([2]; mouse, in vivo) was “remained hairless”. For the same compound, the “PASI Score, Mean ± SEM” value ([2]; scale 0-12, topical ointment 0.06% active drug (dexamethasone 0.03%, tacrolimus 0.1%)) was 4.525 ± 0.375.

Reference: patent publication US20250034139A1, “AMINE COMPOUNDS HAVING ANTI-INFLAMMATORY, ANTIFUNGAL, ANTIPARASITIC, AND ANTICANCER ACTIVITY” (PHARMA CINQ, LLC, priority 2013, published 2025)
